The record followed here is patent US20240383875A1, “Benzimidazole Pyridine Derivatives” (Hoffmann-La Roche Inc., priority 2022, published 2024).

What all share (format): biochemical
Assay [1] concerns the target SIK2 (Homo sapiens, UniProt Q9H0K1). Briefly: Enzymatic activity assay SIK2, RapidFire mass spectrometry (phosphorylation of CHK-peptide). The note with it: RapidFire MS, inhibition of SIK2; read-out: SIK2 RF IC50. In short, it runs like this: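 SIK2 (0.5 nM) in pH 7.0 HEPES buffer with 10 mM Mg acetate phosphorylates CHK-peptide (10 μM solution) with 100 μM ATP solution, 45 min ambient, then formic acid quench.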

Assay [2] deals with SIK3 (Homo sapiens, UniProt Q9Y2K2). In words: Enzymatic activity assay SIK3, RapidFire mass spectrometry (phosphorylation of CHK-peptide). The note with it: RapidFire MS, inhibition of SIK3; read-out: SIK3 RF IC50. In short, it runs like this: (§1)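 Compounds (12-point, 3-fold, generally 30 μM to 170 pM) were pre-incubated 30 min at ambient temperature with SIK1 (5 nM), SIK2 (0.5 nM) or SIK3 (1.5 nM) in HEPES pH 7.0/magnesium acetate buffer. CHK-peptide (10 μM solution) and ATP (100 μM solution) were then added for 45 min before formic acid quench.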
Chain of SIK3 (Q9Y2K2 whole entry): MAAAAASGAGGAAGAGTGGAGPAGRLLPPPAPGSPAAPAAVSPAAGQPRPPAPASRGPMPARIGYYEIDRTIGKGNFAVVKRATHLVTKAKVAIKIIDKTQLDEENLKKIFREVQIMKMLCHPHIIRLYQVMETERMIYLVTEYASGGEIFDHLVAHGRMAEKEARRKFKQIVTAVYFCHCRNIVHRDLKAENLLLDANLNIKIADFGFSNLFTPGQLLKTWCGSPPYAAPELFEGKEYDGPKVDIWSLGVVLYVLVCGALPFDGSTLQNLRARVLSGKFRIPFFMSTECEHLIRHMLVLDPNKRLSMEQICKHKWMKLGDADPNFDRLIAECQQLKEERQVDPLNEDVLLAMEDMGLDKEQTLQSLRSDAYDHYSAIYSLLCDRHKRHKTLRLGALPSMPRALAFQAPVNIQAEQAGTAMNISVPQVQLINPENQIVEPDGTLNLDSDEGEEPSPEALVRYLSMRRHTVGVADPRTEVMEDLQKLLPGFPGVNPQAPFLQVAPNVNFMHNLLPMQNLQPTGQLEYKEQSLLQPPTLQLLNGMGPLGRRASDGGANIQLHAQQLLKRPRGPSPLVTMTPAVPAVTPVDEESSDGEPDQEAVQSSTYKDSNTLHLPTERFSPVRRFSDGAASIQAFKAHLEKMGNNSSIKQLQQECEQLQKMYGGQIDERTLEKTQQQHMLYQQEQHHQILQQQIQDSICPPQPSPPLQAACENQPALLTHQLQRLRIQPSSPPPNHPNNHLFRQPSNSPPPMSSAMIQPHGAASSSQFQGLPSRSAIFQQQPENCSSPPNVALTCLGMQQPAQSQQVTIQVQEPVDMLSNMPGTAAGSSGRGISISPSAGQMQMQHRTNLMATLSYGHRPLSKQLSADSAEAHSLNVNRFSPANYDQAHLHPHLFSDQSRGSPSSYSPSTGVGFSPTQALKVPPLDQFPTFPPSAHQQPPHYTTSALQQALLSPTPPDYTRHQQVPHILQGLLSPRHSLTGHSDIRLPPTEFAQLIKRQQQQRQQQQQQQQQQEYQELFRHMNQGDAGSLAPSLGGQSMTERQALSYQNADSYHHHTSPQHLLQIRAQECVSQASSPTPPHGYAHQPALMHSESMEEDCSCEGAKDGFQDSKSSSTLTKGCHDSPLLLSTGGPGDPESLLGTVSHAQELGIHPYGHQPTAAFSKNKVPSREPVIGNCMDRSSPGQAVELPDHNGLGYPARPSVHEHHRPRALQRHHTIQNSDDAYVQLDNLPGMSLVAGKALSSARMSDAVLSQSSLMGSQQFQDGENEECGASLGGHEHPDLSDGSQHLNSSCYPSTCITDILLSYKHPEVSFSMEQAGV

Assay [3] deals with SIK1 (Homo sapiens, UniProt P57059). In words: Enzymatic activity assay SIK1, RapidFire mass spectrometry (phosphorylation of CHK-peptide). The note with it: RapidFire MS, inhibition of SIK1; read-out: SIK1 RF IC50. In short, it runs like this: as §1
Chain of SIK1 (P57059 whole entry): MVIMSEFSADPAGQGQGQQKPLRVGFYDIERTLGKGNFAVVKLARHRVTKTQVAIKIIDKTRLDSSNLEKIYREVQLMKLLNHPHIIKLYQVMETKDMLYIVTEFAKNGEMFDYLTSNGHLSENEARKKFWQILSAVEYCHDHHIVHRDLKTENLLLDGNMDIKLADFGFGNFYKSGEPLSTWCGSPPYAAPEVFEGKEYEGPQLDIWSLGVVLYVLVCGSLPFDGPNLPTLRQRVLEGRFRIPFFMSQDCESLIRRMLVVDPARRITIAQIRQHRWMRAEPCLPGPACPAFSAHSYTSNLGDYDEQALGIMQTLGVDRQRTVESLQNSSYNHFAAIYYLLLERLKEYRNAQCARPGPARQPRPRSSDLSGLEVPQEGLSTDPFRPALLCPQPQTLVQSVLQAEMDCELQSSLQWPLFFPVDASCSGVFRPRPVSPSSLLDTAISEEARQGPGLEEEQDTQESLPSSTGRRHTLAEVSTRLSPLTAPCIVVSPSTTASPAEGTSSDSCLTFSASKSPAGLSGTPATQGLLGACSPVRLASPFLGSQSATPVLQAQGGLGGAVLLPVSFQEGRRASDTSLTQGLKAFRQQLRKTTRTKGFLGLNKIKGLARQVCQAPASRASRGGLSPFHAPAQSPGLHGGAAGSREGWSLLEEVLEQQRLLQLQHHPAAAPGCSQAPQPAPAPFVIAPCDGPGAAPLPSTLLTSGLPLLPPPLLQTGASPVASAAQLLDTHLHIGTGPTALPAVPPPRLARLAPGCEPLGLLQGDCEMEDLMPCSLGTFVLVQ

Some results are limits rather than exact numbers.

Chain of SIK2 (Q9H0K1 whole entry): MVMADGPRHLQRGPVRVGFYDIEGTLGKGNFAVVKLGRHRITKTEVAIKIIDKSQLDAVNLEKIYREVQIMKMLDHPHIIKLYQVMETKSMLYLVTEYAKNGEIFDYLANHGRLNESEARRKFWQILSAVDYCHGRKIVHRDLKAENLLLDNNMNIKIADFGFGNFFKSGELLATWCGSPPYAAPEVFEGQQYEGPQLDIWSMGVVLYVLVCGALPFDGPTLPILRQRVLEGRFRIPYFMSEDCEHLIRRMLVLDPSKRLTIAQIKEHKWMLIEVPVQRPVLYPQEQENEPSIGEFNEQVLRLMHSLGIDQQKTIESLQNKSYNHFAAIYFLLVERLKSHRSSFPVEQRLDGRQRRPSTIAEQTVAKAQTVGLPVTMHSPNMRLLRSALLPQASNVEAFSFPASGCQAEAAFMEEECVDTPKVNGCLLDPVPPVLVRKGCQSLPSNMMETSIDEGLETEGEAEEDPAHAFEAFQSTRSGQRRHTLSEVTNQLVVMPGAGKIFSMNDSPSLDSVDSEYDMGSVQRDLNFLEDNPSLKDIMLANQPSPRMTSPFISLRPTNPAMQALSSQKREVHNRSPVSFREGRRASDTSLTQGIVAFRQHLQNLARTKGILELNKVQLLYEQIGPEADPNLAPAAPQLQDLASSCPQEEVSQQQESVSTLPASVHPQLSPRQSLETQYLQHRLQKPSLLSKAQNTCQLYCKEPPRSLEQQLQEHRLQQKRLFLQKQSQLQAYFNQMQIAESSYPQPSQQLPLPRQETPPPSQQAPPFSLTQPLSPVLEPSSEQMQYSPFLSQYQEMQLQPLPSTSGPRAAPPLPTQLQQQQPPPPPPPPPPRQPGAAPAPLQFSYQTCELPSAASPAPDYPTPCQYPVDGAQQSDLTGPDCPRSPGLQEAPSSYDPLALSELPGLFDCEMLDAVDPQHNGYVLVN

Consider `Cc1ccc(Nc2ccc3c(c2)ncn3-c2ccc(C(C)O)c(-c3cn(C(F)F)nc3C)n2)nn1` (stereo not drawn) [Example 149, 1-[2-[1-(Difluoromethyl)-3-methyl-pyrazol-4-yl]-6-[5-[(6-methylpyridazin-3-yl)amino]benzimidazol-1-yl]-3-pyridyl]ethanol], for which the values for the IC50 in assay [1], in assay [2] and in assay [3] were 8.4 nM, 1.9 nM and 1290 nM, respectively.

Take `Cc1ccc(Nc2ccc3ncn(-c4ccc(C(C)O)c(-n5ncc(C#N)c5C)n4)c3c2)nn1` (stereo not drawn) [Example 150, 1-[3-(1-Hydroxyethyl)-6-[6-[(6-methylpyridazin-3-yl)amino]benzimidazol-1-yl]-2-pyridyl]-5-methyl-pyrazole-4-carbonitrile]: the IC50 – broadly, the concentration needed to halve the response being measured – in assay [1] was 207 nM; in assay [2], 33.5 nM; in assay [3], 24400 nM.

Turning to `Cc1ccc(Nc2ccc3c(c2)ncn3-c2ccc(C(C)O)c(-n3ncc(C#N)c3C)n2)nn1` (stereo not drawn) [Example 151, 1-[3-(1-Hydroxyethyl)-6-[5-[(6-methylpyridazin-3-yl)amino]benzimidazol-1-yl]-2-pyridyl]-5-methyl-pyrazole-4-carbonitrile], the IC50 in assay [1] stood at 4710 nM; in assay [2], 1880 nM; in assay [3], 13600 nM.

`CNC(=O)c1cc(C)n(-c2nc(-n3cnc4cc(Nc5ccc(C)nn5)ccc43)ccc2C(C)O)n1` (stereo not drawn) [Example 152, 1-[3-(1-Hydroxyethyl)-6-[5-[(6-methylpyridazin-3-yl)amino]benzimidazol-1-yl]-2-pyridyl]-N,5-dimethyl-pyrazole-3-carboxamide]: the IC50 in assay [1] was determined as 82.1 nM; in assay [2] it was 16.1 nM; in assay [3], 5040 nM.

For the compound `Cc1cc(C#N)nn1-c1nc(-n2cnc3cc(NC4CCN(C)C(=O)C4)ccc32)ccc1C(C)O` (stereo not drawn) [Example 155, 1-[3-(1-Hydroxyethyl)-6-[5-[(2-keto-1-methyl-4-piperidyl)amino]benzimidazol-1-yl]-2-pyridyl]-5-methyl-pyrazole-3-carbonitrile], the IC50 in assay [1] is 90.2 nM; in assay [2], 26.5 nM; in assay [3], 361 nM.

In the case of `COc1cc(C)n(-c2nc(-n3cnc4cc(Nc5ccc(C)nn5)ccc43)ccc2CO)n1` [Example 158, [2-(3-methoxy-5-methyl-pyrazol-1-yl)-6-[5-[(6-methylpyridazin-3-yl)amino]benzimidazol-1-yl]-3-pyridyl]methanol], the IC50 in assay [1] worked out at 41.9 nM; in assay [2] it was 12.8 nM; in assay [3] it was 2150 nM.

As to `Cc1ccc(Nc2ccc3c(c2)ncn3-c2ccc(C(C)O)c(-c3c(C)noc3C)n2)nn1` (stereo not drawn) [Example 159, 1-[2-(3,5-Dimethylisoxazol-4-yl)-6-[5-[(6-methylpyridazin-3-yl)amino]benzimidazol-1-yl]-3-pyridyl]ethanol], the IC50 in assay [1] worked out at 306 nM; in assay [2] it was 70.2 nM; in assay [3] it was 23800 nM.

`COc1ccnnc1Nc1ccc2c(c1)ncn2-c1ccc(C(C)O)c(-n2nc(C#N)cc2C)n1` (stereo not drawn) [Example 160, 1-[3-(1-Hydroxyethyl)-6-[5-[(4-methoxypyridazin-3-yl)amino]benzimidazol-1-yl]-2-pyridyl]-5-methyl-pyrazole-3-carbonitrile]: the IC50 was determined as 3.2 nM in assay [1], 1.2 nM in assay [2] and 223 nM in assay [3].

Turning to `Cc1cc(C#N)nn1-c1nc(-n2cnc3cc(NC4CC(=O)N(C)C4)ccc32)ccc1C(C)O` (stereo not drawn) [Example 161, 1-[3-(1-Hydroxyethyl)-6-[5-[(5-keto-1-methyl-pyrrolidin-3-yl)amino]benzimidazol-1-yl]-2-pyridyl]-5-methyl-pyrazole-3-carbonitrile], the half-inhibitory concentration (IC50) in assay [1] is 181 nM; in assay [2], 66.1 nM; in assay [3], 450 nM.

In the case of `Cc1ccc(Nc2ccc3c(c2)ncn3-c2ccc(C(C)O)c(-c3ccncc3C)n2)nn1` (stereo not drawn) [Example 162, 1-[6-[5-[(6-Methylpyridazin-3-yl)amino]benzimidazol-1-yl]-2-(3-methyl-4-pyridyl)-3-pyridyl]ethanol], the 50% inhibitory concentration (IC50) turned out to be 198 nM in assay [1], 46.9 nM in assay [2] and 8570 nM in assay [3].

With `Cc1ccc(Nc2ccc3c(c2)ncn3-c2ccc(C(C)O)c(-c3cncnc3NC3CC3)n2)nn1` (stereo not drawn) [Example 163, 1-[2-[4-(Cyclopropylamino)pyrimidin-5-yl]-6-[5-[(6-methylpyridazin-3-yl)amino]benzimidazol-1-yl]-3-pyridyl]ethanol], the IC50 was 964 nM in assay [1], 181 nM in assay [2] and greater than 30000 nM in assay [3].

Consider `Cc1ccc(Nc2ccc3c(c2)ncn3-c2ccc(C(C)O)c(-c3cnc(O)cc3C(F)(F)F)n2)nn1` (stereo not drawn) [Example 164, 5-[3-(1-Hydroxyethyl)-6-[5-[(6-methylpyridazin-3-yl)amino]benzimidazol-1-yl]-2-pyridyl]-4-(trifluoromethyl)pyridin-2-ol], for which the 50% inhibitory concentration (IC50) was 3300 nM in assay [1], 963 nM in assay [2] and greater than 30000 nM in assay [3].

Consider `Cc1ccc(Nc2ccc3c(c2)ncn3-c2ccc(C(C)O)c(-c3cnn4c3C(=O)NCC4)n2)nn1` (stereo not drawn) [Example 165, 3-[3-(1-Hydroxyethyl)-6-[5-[(6-methylpyridazin-3-yl)amino]benzimidazol-1-yl]-2-pyridyl]-6,7-dihydro-5H-pyrazolo[1,5-a]pyrazin-4-one], for which the results for the concentration for half-maximal inhibition (IC50) in assay [1], in assay [2] and in assay [3] were 359 nM, 95.5 nM and 13300 nM, respectively.

With `Cc1cc(C#N)nn1-c1nc(-n2cnc3cc(N[C@H]4CNC[C@H]4F)c(F)cc32)ccc1C(C)O` (stereo partly drawn) [Example 166, 1-[6-[6-Fluoro-5-[[(3S,4R)-4-fluoropyrrolidin-3-yl]amino]benzimidazol-1-yl]-3-(1-hydroxyethyl)-2-pyridyl]-5-methyl-pyrazole-3-carbonitrile; formic acid], the half-maximal inhibitory concentration (IC50) stood at 83.2 nM in assay [1], 40.8 nM in assay [2] and 681 nM in assay [3].

Take `Cc1ccc(Nc2ccc3c(c2)ncn3-c2ccc(C(C)O)c(-c3cc(OC(F)F)ncc3C)n2)nn1` (stereo not drawn) [Example 167, 1-[2-[2-(Difluoromethoxy)-5-methyl-4-pyridyl]-6-[5-[(6-methylpyridazin-3-yl)amino]benzimidazol-1-yl]-3-pyridyl]ethanol]: the IC50 worked out at 0.9 nM in assay [1], 1.2 nM in assay [2] and 40 nM in assay [3].

Turning to `Cc1ccc(Nc2ccc3c(c2)ncn3-c2ccc(C(C)O)c(-c3cc(F)ncc3C)n2)nn1` (stereo not drawn) [Example 168, 1-[2-(2-Fluoro-5-methyl-4-pyridyl)-6-[5-[(6-methylpyridazin-3-yl)amino]benzimidazol-1-yl]-3-pyridyl]ethanol], the half-maximal inhibitory concentration (IC50) in assay [1] was found to be 39.9 nM; in assay [2] it was 8.6 nM; in assay [3], 1760 nM.

In the case of `Cc1ccc(Nc2ccc3ncn(-c4ccc(C(C)O)c(-n5cc(C)c(C#N)n5)n4)c3c2)nn1` (stereo not drawn) [Example 169, 1-[3-(1-Hydroxyethyl)-6-[6-[(6-methylpyridazin-3-yl)amino]benzimidazol-1-yl]-2-pyridyl]-4-methyl-pyrazole-3-carbonitrile; formic acid], the 50% inhibitory concentration (IC50) in assay [1] was determined as 135 nM; in assay [2], 85.2 nM; in assay [3] it was 613 nM.

Take `Cc1ccc(Nc2ccc3c(c2)ncn3-c2ccc(C(C)O)c(-n3cc(C)c(C#N)n3)n2)nn1` (stereo not drawn) [Example 170, 1-[3-(1-Hydroxyethyl)-6-[5-[(6-methylpyridazin-3-yl)amino]benzimidazol-1-yl]-2-pyridyl]-4-methyl-pyrazole-3-carbonitrile; formic acid]: the IC50 in assay [1] turned out to be 2.1 nM; in assay [2] it was 1 nM; in assay [3] it was 216 nM.

As for `Cc1ccc(Nc2ccc3c(c2)ncn3-c2ccc(C(C)O)c(-n3nc(C(F)(F)F)c4c3CCN(C)C4)n2)nn1` (stereo not drawn) [Example 171, 1-[6-[5-[(6-Methylpyridazin-3-yl)amino]benzimidazol-1-yl]-2-[5-methyl-3-(trifluoromethyl)-6,7-dihydro-4H-pyrazolo[4,3-c]pyridin-1-yl]-3-pyridyl]ethanol; formic acid], the IC50 worked out at 0.3 nM in assay [1], 0.7 nM in assay [2] and 9 nM in assay [3].

Turning to `Cc1ccc(Nc2ccc3ncn(-c4ccc(C(C)O)c(N(C)CC5(C#N)CC5)n4)c3c2)nn1` (stereo not drawn) [Example 172, 1-[[[3-(1-hydroxyethyl)-6-[6-[(6-methylpyridazin-3-yl)amino]benzimidazol-1-yl]-2-pyridyl]-methyl-amino]methyl]cyclopropanecarbonitrile], the values for the IC50 in assay [1], in assay [2] and in assay [3] were 2090 nM, 1850 nM and 2620 nM, respectively.

Consider `Cc1ccc(Nc2ccc3c(c2)ncn3-c2ccc(C(C)O)c(N(C)CC3(C#N)CC3)n2)nn1` (stereo not drawn) [Example 173, 1-[[[3-(1-Hydroxyethyl)-6-[5-[(6-methylpyridazin-3-yl)amino]benzimidazol-1-yl]-2-pyridyl]-methyl-amino]methyl]cyclopropanecarbonitrile], for which the IC50 amounted to 198 nM in assay [1], 53.9 nM in assay [2] and 3490 nM in assay [3].

With `Cc1ccc(Nc2ccc3c(c2)ncn3-c2ccc(C(C)O)c(-c3cc(F)cnc3Cl)n2)nn1` (stereo not drawn) [Example 174, 1-[2-(2-Chloro-5-fluoro-3-pyridyl)-6-[5-[(6-methylpyridazin-3-yl)amino]benzimidazol-1-yl]-3-pyridyl]ethanol; formic acid], the IC50 in assay [1] amounted to 151 nM; in assay [2] it was 29 nM; in assay [3] it was 12100 nM.
